Test results as given in US10351915B2 (Berg LLC, priority 2009, dated 2019).

Assays:
[1] = system: Isocitrate Dehydrogenase-1 (IDH-1); experiment: Western blot, IDH1 levels; assay type: cell-based, human
Protocol: The whole cell pellets were resuspended one at a time in 1 mL of C7 buffer and transferred to labeled 15 mL tubes. The samples were then sonicated in the cold room on ice using 6 sonic pulses with the setting at #14. The samples were spun for a short time to 2500 g after sonication and the samples transferred to 2 ml tubes. The pH was verified of each sample (pH should be 9.0) using the foam remaining in the […] sample tubes.
Alkylation and reduction of samples was performed for each sample by adding 10 ul of 1M acrylamide, 25 ul of tributylphoshene and incubation for 90 mins with intermittent mixing. After incubation, 10 ul of 1M DTT was added and the tubes were spun at 20,000 g at 20 deg C. for 10 minutes and transferred the supernatant to labeled Amicon Ultra centrifugal filter units with a 10 k cut off (Millipore catalog # UFC 801024). The samples were spun for 15 minutes at 2500 g in 2 intervals. The conductivity was measured for Chaps alone as well as the samples using a conductivity meter. If the conductivity of samples is high, then 1 ml of chaps was added for buffer exchange and spun again at 2500 g until the volume was down to 250 ul. When the conductivity was 200 or less the samples were spun in 5 min intervals at 2500 g until the volume of the supernatant was between 150-100 ul. The sample supernatants were transferred to eppendorf tubes and Bradford assay was performed using BSA as standard.
The samples were processed as per standard protocols as described above and the amount of protein in each of the samples was determined by Bradford assay. Sample volumes equivalent to 10 ug of protein were prepared as shown below with Lamelli Loading dye (LDS) and MilliQ water were run on a 4-12% Bis-Tris Novex NuPAGE gel (Invitrogen, cat # NP0323Box)
The gels were run for 50 minutes using 1×MOPS buffer using a NOVEX Xcell Surelock system at 200 V. The gels were then transferred for 1 hour using a NOVEX Xcell Surelock wet transfer protocol at 30 V. The blots were stained with Simply Blue Safestain from Invitrogen (LC6065).
After transfer each of the blots was placed in between 2 Whatman Filter papers and dried for 15-20 minutes. After drying the blots were labeled with the date, the type of samples and either blot 1 or blot 2 using a HB pencil. The molecular weight markers were outlined with the pencil and with single lines for the blue and a doublet for the colored markers. The blots were activated with methanol for 5 seconds, washed with water for 5 minutes, and TBST for 15 minutes. The blots were blocked for 1 hour with 5% blocking reagent in TBS-T at room temperature and then washed 3 times with TBS-T (1×-15′; 2×5′ each). […]

a variety of cell types = experiment: Western blot analysis (Bcl-xL, Vimentin, oxidative phosphorylation and mitochondrial membrane proteins); assay type: cell-based; settings: 50 or 100 μM Q10
Protocol: Approximately 50 μg of protein were assayed per sample by immunoblotting. All treatments were run in triplicate with controls. […] The primary antibodies were incubated overnight at 4 degrees C. in a 5% BSA and TBST solution. Secondary antibodies were incubated for one hour at 4 degrees. All antibodies were purchased from Cell Signaling Technology. Antibodies were used at a ratio of 1:1000, with the exception of βActin at a ratio of 1:5000. Blots were developed and results were quantified using the NIH Java based densitometer analysis software Image J. All blots were also probed for and normalized to their respective βActin expression.
The first experiment processed and evaluated by Western blot and 2-D gel electrophoresis was carried out on the skin cancer cell line SKMEL-28.
A variety of cell types were evaluated by Western blot analysis against an antibody for Bcl-xL (FIG. 14), an antibody for Vimentin (FIG. 15), a series of antibodies for mitochondrial oxidative phosphorylation function (FIGS. 16-21) and against a series of antibodies related to mitochondrial membrane integrity (FIGS. 22-27).

MCF-7 = experiment: Nexin assay for apoptosis (flow cytometry); assay type: cell-based; settings: 50 μM and 100 μM Q10, 24 hours
Description: (§1) The 7AAD dye will enter into cells with permeabilized cell membranes; primarily those cells that are in late apoptosis. Annexin-V-PE is a dye that binds to Phosphotidyl serine, which is exposed on the outer surface of the plasma membrane in early apoptotic cells. The Nexin reagent thus can be used to differentiate between different populations of apoptotic cells in a flow cytometer.

SK-MEL28 = experiment: Nexin assay for apoptosis (flow cytometry); assay type: cell-based; settings: 50 μM and 100 μM Q10, 24 hours
Description: as §1

PC-3 = experiment: Nexin assay for apoptosis (flow cytometry); assay type: cell-based; settings: 50 μM and 100 μM Q10, 24 hours
Description: as §1

PaCa2 = experiment: Nexin assay for apoptosis (flow cytometry); assay type: cell-based; settings: 50 μM and 100 μM Q10, 24 hours
Description: as §1

SCC cells = experiment: Real-time PCR Diabetes Array; assay type: cell-based
Description: The control cells were untreated cells.

## COC1=C(OC)C(=O)C(C/C=C(\C)CC/C=C(\C)CC/C=C(\C)CC/C=C(\C)CC/C=C(\C)CC/C=C(\C)CC/C=C(\C)CC/C=C(\C)CC/C=C(\C)CCC=C(C)C)=C(C)C1=O [Q10, Coenzyme Q10]
[1]; HDFa cells, HDF24-100 (HDF, Media = 346)
  IDH1, Average Normalized Intensity: 600
[1]; HDFa, nFIB and HASMC
  expression pattern of IDH1: did not demonstrate significant changes
[1]; SCC25 cell lines
  expression of IDH1: moderate increase in expression
[1]; cancer cell lines MCF-7, SKMEL28, HepG2 and PaCa-2
  expression of IDH1: increased expression
A variety of cell types
  levels of examined proteins: several of the examined proteins were upregulated or downregulated
MCF-7
  apoptotic population: an increase only in early apoptotic population
SK-MEL28
  apoptotic population: an increase only in early apoptotic population
PC-3
  early and late apoptotic population: an increase in both early and late apoptotic population
PaCa2
  increase in both early and late apoptotic cells: 5-10 % of gated cells
SCC cells; 100 μM Q10, at 6 and 24 hours
  Regulation (mRNA): Down regulated at 6 and 24
SCC cells; 100 μM Q10, at 6 hours
  Regulation (mRNA): Down regulated at 6 hours.
